From patent US8710198B2, “Caprazene as a novel compound and derivatives thereof, and caprazol as a novel compound and derivatives thereof” (Meiji Seika Pharma Co., Ltd., priority 2003, dated 2014)

Assays:
Micrococcus luteus FDA16 = assay: Minimum growth inhibitory concentration on agar culture medium by serial dilution method (Japanese Society of Chemotherapy); assay type: cell-based
Procedure: (§1) Minimum growth inhibitory concentrations (mcg/ml) of caprazene-1′″-amide derivatives of the formula (II) against some of microorganisms were measured on an agar culture medium by a serial dilution method according to the standard method as provided by Japanese Society of Chemotherapy. For the cultivation of Mycobacterium smegmatis (one of […]), however, there was used an agar culture medium with the addition of 1% glycerine (the same applies to in the following tests).
(§2) Minimum growth inhibitory concentrations (mcg/ml) of some of the caprazene-1′″-ester derivative of the formula (III) against some of microorganisms were measured on an agar culture medium by a serial dilution method according to the standard method as provided by Japanese Society of Chemotherapy.
(§3) Minimum growth inhibitory concentrations (mcg/ml) of some of the caprazol-1′″-amide derivative of the formula (V) against a variety of microorganisms were measured on an agar medium by a serial dilution method according to the standard method as provided by Japanese Society of Chemotherapy.
(§4) Minimum growth inhibitory concentrations (mcg/ml) of some of the caprazol-1′″-amide-3′″-ester derivative of the formula (VI) against a variety of microorganisms were measured on an agar medium by a serial dilution method according to the standard method as provided by Japanese Society of Chemotherapy.
(§5) Minimum growth inhibitory concentrations (mcg/ml) of some of the caprazol-3′″-ester derivative or caprazol-1′″-ester-3′″-ester derivative of the formula (VII) against a variety of microorganisms were measured on an agar medium by a serial dilution method according to the standard method as provided by Japanese Society of Chemotherapy.
(§6) Minimum growth inhibitory concentrations (mcg/ml) of some of the derivative of the formula (VIII) against a variety of microorganisms were measured on an agar medium by a serial dilution method according to the standard method as provided by Japanese Society of Chemotherapy.

[1] = system: Staphylococcus aureus FDA209P; assay: as above; assay type: cell-based
Procedure: as §1, §2, §3, §4, §5, §6

[2] = system: Mycobacterium smegmatis ATCC607; assay: Minimum growth inhibitory concentration on agar culture medium with 1% glycerine by serial dilution method; assay type: cell-based; details: agar culture medium with the addition of 1% glycerine
Procedure: as §1, §2, §3, §4, §5

acid-fast bacteria = details: statement in words, WO 01/12643A1 / EP 1211259A1; cited from earlier work

## CCCCCCCCCCCNC(=O)C1C(O)CN(C)C(C(OC2OC(CN)C(O)C2O)C2OC(n3ccc(=O)[nH]c3=O)C(O)C2O)C(=O)N1C (stereo not drawn) [Compound V-F]
Micrococcus luteus FDA16
  Minimum growth inhibitory concentration (mcg/ml) against bacteria Micrococcus luteus FDA16: 25 µg/mL
[1]
  Minimum growth inhibitory concentration (mcg/ml) against bacteria Staphylococcus aureus FDA209P: 12.5 µg/mL
[2]
  Minimum growth inhibitory concentration (mcg/ml) against bacteria Mycobacterium smegmatis ATCC607: 6.25 µg/mL

## CCCCCCCCCCCCNC(=O)C1C(O)CN(C)C(C(OC2OC(CN)C(O)C2O)C2OC(n3ccc(=O)[nH]c3=O)C(O)C2O)C(=O)N1C (stereo not drawn) [Compound V-G, caprazol-1′″-dodecyl-amide derivative]
Micrococcus luteus FDA16
  Minimum growth inhibitory concentration (mcg/ml) against bacteria Micrococcus luteus FDA16: 25 µg/mL
[1]
  Minimum growth inhibitory concentration (mcg/ml) against bacteria Staphylococcus aureus FDA209P: 12.5 µg/mL
[2]
  Minimum growth inhibitory concentration (mcg/ml) against bacteria Mycobacterium smegmatis ATCC607: 6.25 µg/mL

## CCCCCCCCC=CCCCCCCCCNC(=O)C1C(O)CN(C)C(C(OC2OC(CN)C(O)C2O)C2OC(n3ccc(=O)[nH]c3=O)C(O)C2O)C(=O)N1C (stereo not drawn) [Compound V-R]
Micrococcus luteus FDA16
  Minimum growth inhibitory concentration (mcg/ml) against bacteria Micrococcus luteus FDA16: 25 µg/mL
[1]
  Minimum growth inhibitory concentration (mcg/ml) against bacteria Staphylococcus aureus FDA209P: 12.5 µg/mL
[2]
  Minimum growth inhibitory concentration (mcg/ml) against bacteria Mycobacterium smegmatis ATCC607: 6.25 µg/mL

## CCCCCCCCNC(=O)C1C(OC(=O)CCCCCCCC)CN(C)C(C(OC2OC(CN)C(O)C2O)C2OC(n3ccc(=O)[nH]c3=O)C(O)C2O)C(=O)N1C (stereo not drawn) [Compound VI-C]
Micrococcus luteus FDA16
  Minimum growth inhibitory concentration (mcg/ml) against bacteria Micrococcus luteus FDA16: 6.25 µg/mL
[1]
  Minimum growth inhibitory concentration (mcg/ml) against bacteria Staphylococcus aureus FDA209P: 12.5 µg/mL
[2]
  Minimum growth inhibitory concentration (mcg/ml) against bacteria Mycobacterium smegmatis ATCC607: 6.25 µg/mL

## CCCCCCCCCCNC(=O)C1C(OC(=O)CCCCCCCCCC)CN(C)C(C(OC2OC(CN)C(O)C2O)C2OC(n3ccc(=O)[nH]c3=O)C(O)C2O)C(=O)N1C (stereo not drawn) [Compound VI-E]
Micrococcus luteus FDA16
  Minimum growth inhibitory concentration (mcg/ml) against bacteria Micrococcus luteus FDA16: 6.25 µg/mL
[1]
  Minimum growth inhibitory concentration (mcg/ml) against bacteria Staphylococcus aureus FDA209P: 12.5 µg/mL
[2]
  Minimum growth inhibitory concentration (mcg/ml) against bacteria Mycobacterium smegmatis ATCC607: 6.25 µg/mL

## CCCCCCCCCCCNC(=O)C1C(OC(=O)CCCCCCCCCCC)CN(C)C(C(OC2OC(CN)C(O)C2O)C2OC(n3ccc(=O)[nH]c3=O)C(O)C2O)C(=O)N1C (stereo not drawn) [Compound VI-F]
Micrococcus luteus FDA16
  Minimum growth inhibitory concentration (mcg/ml) against bacteria Micrococcus luteus FDA16: 3.13 µg/mL
[1]
  Minimum growth inhibitory concentration (mcg/ml) against bacteria Staphylococcus aureus FDA209P: 12.5 µg/mL
[2]
  Minimum growth inhibitory concentration (mcg/ml) against bacteria Mycobacterium smegmatis ATCC607: 6.25 µg/mL

## CCCCCCCCCCCCNC(=O)C1C(OC(=O)CCCCCCCCCCC)CN(C)C(C(OC2OC(CN)C(O)C2O)C2OC(n3ccc(=O)[nH]c3=O)C(O)C2O)C(=O)N1C (stereo not drawn) [Compound VI-G, caprazol-1′″-dodecylamide-3′″-dodecanoylester derivative]
Micrococcus luteus FDA16
  Minimum growth inhibitory concentration (mcg/ml) against bacteria Micrococcus luteus FDA16: 3.13 µg/mL
[1]
  Minimum growth inhibitory concentration (mcg/ml) against bacteria Staphylococcus aureus FDA209P: 25 µg/mL
[2]
  Minimum growth inhibitory concentration (mcg/ml) against bacteria Mycobacterium smegmatis ATCC607: 6.25 µg/mL

## CCCCCCCCCCCC(=O)OC1CN(C)C(C(OC2OC(CN)C(O)C2O)C2OC(n3ccc(=O)[nH]c3=O)C(O)C2O)C(=O)N(C)C1C(=O)NC1CCCCCCCCCCC1 (stereo not drawn) [Compound VI-Q]
Micrococcus luteus FDA16
  Minimum growth inhibitory concentration (mcg/ml) against bacteria Micrococcus luteus FDA16: 3.13 µg/mL
[1]
  Minimum growth inhibitory concentration (mcg/ml) against bacteria Staphylococcus aureus FDA209P: 12.5 µg/mL
[2]
  Minimum growth inhibitory concentration (mcg/ml) against bacteria Mycobacterium smegmatis ATCC607: 6.25 µg/mL

## CCCCCCCCC=CCCCCCCCCNC(=O)C1C(OC(=O)CCCCCCCCCCC)CN(C)C(C(OC2OC(CN)C(O)C2O)C2OC(n3ccc(=O)[nH]c3=O)C(O)C2O)C(=O)N1C (stereo not drawn) [Compound VI-R]
Micrococcus luteus FDA16
  Minimum growth inhibitory concentration (mcg/ml) against bacteria Micrococcus luteus FDA16: 3.13 µg/mL
[1]
  Minimum growth inhibitory concentration (mcg/ml) against bacteria Staphylococcus aureus FDA209P: 25 µg/mL
[2]
  Minimum growth inhibitory concentration (mcg/ml) against bacteria Mycobacterium smegmatis ATCC607: 6.25 µg/mL

## CCCCCCC(=O)OC1CN(C)C(C(OC2OC(CN)C(O)C2O)C2OC(n3ccc(=O)[nH]c3=O)C(O)C2O)C(=O)N(C)C1C(=O)O (stereo not drawn) [Compound VII-A]
Micrococcus luteus FDA16
  Minimum growth inhibitory concentration (mcg/ml) against bacteria Micrococcus luteus FDA16: >50 µg/mL
[1]
  Minimum growth inhibitory concentration (mcg/ml) against bacteria Staphylococcus aureus FDA209P: 25 µg/mL
[2]
  Minimum growth inhibitory concentration (mcg/ml) against bacteria Mycobacterium smegmatis ATCC607: 1.56 µg/mL

## CCCCCCCC(=O)OC1CN(C)C(C(OC2OC(CN)C(O)C2O)C2OC(n3ccc(=O)[nH]c3=O)C(O)C2O)C(=O)N(C)C1C(=O)O (stereo not drawn) [Compound VII-B]
Micrococcus luteus FDA16
  Minimum growth inhibitory concentration (mcg/ml) against bacteria Micrococcus luteus FDA16: >50 µg/mL
[1]
  Minimum growth inhibitory concentration (mcg/ml) against bacteria Staphylococcus aureus FDA209P: 12.5 µg/mL
[2]
  Minimum growth inhibitory concentration (mcg/ml) against bacteria Mycobacterium smegmatis ATCC607: 1.56 µg/mL

## CCCCCCCCC(=O)OC1CN(C)C(C(OC2OC(CN)C(O)C2O)C2OC(n3ccc(=O)[nH]c3=O)C(O)C2O)C(=O)N(C)C1C(=O)O (stereo not drawn) [Compound VII-C]
Micrococcus luteus FDA16
  Minimum growth inhibitory concentration (mcg/ml) against bacteria Micrococcus luteus FDA16: >50 µg/mL
[1]
  Minimum growth inhibitory concentration (mcg/ml) against bacteria Staphylococcus aureus FDA209P: 12.5 µg/mL
[2]
  Minimum growth inhibitory concentration (mcg/ml) against bacteria Mycobacterium smegmatis ATCC607: 0.78 µg/mL

## CCCCCCCCCC(=O)OC1CN(C)C(C(OC2OC(CN)C(O)C2O)C2OC(n3ccc(=O)[nH]c3=O)C(O)C2O)C(=O)N(C)C1C(=O)O (stereo not drawn) [Compound VII-D]
Micrococcus luteus FDA16
  Minimum growth inhibitory concentration (mcg/ml) against bacteria Micrococcus luteus FDA16: 3.13 µg/mL
[1]
  Minimum growth inhibitory concentration (mcg/ml) against bacteria Staphylococcus aureus FDA209P: 3.13 µg/mL
[2]
  Minimum growth inhibitory concentration (mcg/ml) against bacteria Mycobacterium smegmatis ATCC607: 0.78 µg/mL

## CCCCCCCCCCC(=O)OC1CN(C)C(C(OC2OC(CN)C(O)C2O)C2OC(n3ccc(=O)[nH]c3=O)C(O)C2O)C(=O)N(C)C1C(=O)O (stereo not drawn) [Compound VII-E]
Micrococcus luteus FDA16
  Minimum growth inhibitory concentration (mcg/ml) against bacteria Micrococcus luteus FDA16: 1.56 µg/mL
[1]
  Minimum growth inhibitory concentration (mcg/ml) against bacteria Staphylococcus aureus FDA209P: 1.56 µg/mL
[2]
  Minimum growth inhibitory concentration (mcg/ml) against bacteria Mycobacterium smegmatis ATCC607: 0.39 µg/mL

## CCCCCCCCCCCC(=O)OC1CN(C)C(C(OC2OC(CN)C(O)C2O)C2OC(n3ccc(=O)[nH]c3=O)C(O)C2O)C(=O)N(C)C1C(=O)O (stereo not drawn) [Compound VII-F, caprazol-3′″-dodecanoyl Ester Derivative]
Micrococcus luteus FDA16
  Minimum growth inhibitory concentration (mcg/ml) against bacteria Micrococcus luteus FDA16: 3.13 µg/mL
[1]
  Minimum growth inhibitory concentration (mcg/ml) against bacteria Staphylococcus aureus FDA209P: 0.78 µg/mL
[2]
  Minimum growth inhibitory concentration (mcg/ml) against bacteria Mycobacterium smegmatis ATCC607: 0.78 µg/mL

## CCCCCCCCCCCC(=O)OC1CN(C)C(C(OC2OC(CN)C(O)C2O)C2OC(n3ccc(=O)[nH]c3=O)C(O)C2O)C(=O)N(C)C1C(=O)OC (stereo not drawn) [Compound VII-G, caprazol-1′″-methyl-ester-3′″-dodecanoyl-ester Derivative]
Micrococcus luteus FDA16
  Minimum growth inhibitory concentration (mcg/ml) against bacteria Micrococcus luteus FDA16: >100 µg/mL
[1]
  Minimum growth inhibitory concentration (mcg/ml) against bacteria Staphylococcus aureus FDA209P: >100 µg/mL
[2]
  Minimum growth inhibitory concentration (mcg/ml) against bacteria Mycobacterium smegmatis ATCC607: 50 µg/mL

## CCCCCCCCC=CCCCCCCCC(=O)OC1CN(C)C(C(OC2OC(CN)C(O)C2O)C2OC(n3ccc(=O)[nH]c3=O)C(O)C2O)C(=O)N(C)C1C(=O)O (stereo not drawn) [Compound VII-R]
Micrococcus luteus FDA16
  Minimum growth inhibitory concentration (mcg/ml) against bacteria Micrococcus luteus FDA16: 3.13 µg/mL
[1]
  Minimum growth inhibitory concentration (mcg/ml) against bacteria Staphylococcus aureus FDA209P: 1.56 µg/mL
[2]
  Minimum growth inhibitory concentration (mcg/ml) against bacteria Mycobacterium smegmatis ATCC607: 6.25 µg/mL

## CCCCCCCCCCCCC[C@@H](CC(=O)O[C@H]1CN(C)[C@@H](C(O[C@@H]2O[C@H](CN)[C@@H](O)[C@H]2O)[C@H]2O[C@@H](n3ccc(=O)[nH]c3=O)[C@H](O)[C@@H]2O)C(=O)N(C)[C@@H]1C(=O)O)OC(=O)C[C@H](C)CC(=O)O[C@@H]1O[C@H](C)[C@@H](OC)[C@@H](OC)[C@H]1OC (stereo partly drawn) [caprazamycin A]
acid-fast bacteria
  antibacterial activities against acid-fast bacteria: high antibacterial activities

## CCCCCCCCCCCC[C@@H](CC(=O)O[C@H]1CN(C)[C@@H]([C@H](O[C@@H]2O[C@H](CN)[C@@H](O)[C@H]2O)[C@H]2O[C@@H](n3ccc(=O)[nH]c3=O)[C@H](O)[C@@H]2O)C(=O)N(C)[C@@H]1C(=O)O)OC(=O)C[C@H](C)CC(=O)O[C@@H]1O[C@@H](C)C(OC)[C@@H](OC)[C@H]1OC (stereo partly drawn) [caprazamycin C]
acid-fast bacteria
  antibacterial activities against acid-fast bacteria: high antibacterial activities

## CCCCCCCCCCC[C@@H](CC(=O)O[C@H]1CN(C)[C@@H](C(O[C@@H]2O[C@H](CN)[C@@H](O)[C@H]2O)[C@H]2O[C@@H](n3ccc(=O)[nH]c3=O)[C@H](O)[C@@H]2O)C(=O)N(C)[C@@H]1C(=O)O)OC(=O)C[C@H](C)CC(=O)O[C@@H]1O[C@H](C)[C@@H](OC)[C@@H](OC)[C@H]1OC (stereo partly drawn) [caprazamycin E]
acid-fast bacteria
  antibacterial activities against acid-fast bacteria: high antibacterial activities
